Experimental data published in ChEMBL document CHEMBL1201862, “PubChem BioAssay data set” (2004).
Calls of active or inactive are those of the source.

Tests used:
[1] = decrease of insulin promoter-GFP reporter – imaging, high-content screening, mouse beta cells (AID 1628); assay type: functional; conditions: MIN6
[2] = MIN6 cell viability loss – mouse insulinoma, cytotoxicity control, dose response (AID 2122); assay type: functional;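 also: confirmatory high-throughput counterscreen run to flag cytotoxic compounds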
[3] = NIH-3T3 fibroblast cytotoxicity, dose response, cytotoxicity control, cell-based, fluorescence, Alamar Blue, secondary assay (AID 2327); assay type: functional;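 also: NIH-3T3 mouse fibroblasts cultured with fluconazole at 8 µg/mL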
[4] = test system: Streptococcus sp. 'group A'; assay: Streptococcus pyogenes SK(-)GAS viability under kanamycin – luminescence, BacTiterGlo, confirmation, counter-screen for streptokinase expression inhibitor project, dose response (AID 1900); assay type: functional, organism-based
[5] = fluconazole-exposed Candida albicans growth modulators – fluorescence, retest, confirmation (AID 2467); assay type: functional, cell-based
Estrogen receptor = target: T1, Estrogen receptor (Homo sapiens, UniProt P03372);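 also: potency for inhibiting coactivator peptide recruitment to the receptor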
T1 sequence (P03372 whole entry): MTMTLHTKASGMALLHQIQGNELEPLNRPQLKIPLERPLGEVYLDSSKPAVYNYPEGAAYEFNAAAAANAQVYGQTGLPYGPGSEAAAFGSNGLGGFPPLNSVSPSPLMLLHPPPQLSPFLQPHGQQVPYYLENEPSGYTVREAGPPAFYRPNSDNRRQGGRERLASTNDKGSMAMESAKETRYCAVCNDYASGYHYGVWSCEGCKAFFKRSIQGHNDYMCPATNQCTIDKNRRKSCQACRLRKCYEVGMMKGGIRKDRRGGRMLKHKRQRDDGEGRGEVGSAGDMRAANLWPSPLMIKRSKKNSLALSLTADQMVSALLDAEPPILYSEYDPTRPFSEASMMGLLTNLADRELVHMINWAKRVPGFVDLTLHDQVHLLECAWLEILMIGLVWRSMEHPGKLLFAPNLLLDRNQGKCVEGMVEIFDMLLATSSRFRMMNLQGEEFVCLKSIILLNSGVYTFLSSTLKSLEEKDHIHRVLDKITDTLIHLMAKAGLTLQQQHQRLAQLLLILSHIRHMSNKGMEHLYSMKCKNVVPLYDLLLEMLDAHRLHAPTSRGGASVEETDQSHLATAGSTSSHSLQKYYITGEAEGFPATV

Streptococcus = assay: GAS UMAA2166 growth inhibition – luminescence, BacTiterGlo, counter-screen for streptokinase expression inhibitor project, dose response (AID 1915); assay type: functional, organism-based;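 also: potency for reduction of bacterial viability or growth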
[6] = THP-1 cell cytotoxicity, dose response, cytotoxicity control for non-replicating M. tuberculosis project (AID 489025); assay type: functional
[7] = HepG2 cell cytotoxicity, dose response, cytotoxicity control for non-replicating M. tuberculosis project (AID 489018); assay type: functional; conditions: Mycobacterium tuberculosis
[8] = Vero E6 cell cytotoxicity, dose response, cytotoxicity control for non-replicating M. tuberculosis project, secondary assay (AID 492998); assay type: functional, VeroE6; conditions: Vero C1008
cells [9] = assay type: functional
[10] = target: Dual specificity protein phosphatase 3 (Homo sapiens, UniProt P51452); assay: SAR VHR1 Fluorescent Assay for In Vitro dose response studies Set 3. [Related pubchem assays (depositor defined):AID1654, AID1661, AID1878]; assay type: functional
Chain of Dual specificity protein phosphatase 3 (P51452 whole entry): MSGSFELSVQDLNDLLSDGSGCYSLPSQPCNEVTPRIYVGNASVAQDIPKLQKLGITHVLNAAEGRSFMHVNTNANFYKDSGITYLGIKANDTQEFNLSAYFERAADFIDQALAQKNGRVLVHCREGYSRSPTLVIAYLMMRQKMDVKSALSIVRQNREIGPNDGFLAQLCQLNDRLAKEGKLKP

BJ [11] = assay: BJ-TERT fibroblast viability loss – cell-based, RAS-independent, luminescence, dose response (AID 1933); assay type: functional; conditions: Homo sapiens
BJ [12] = assay: cells; assay type: functional, cell-based; conditions: Homo sapiens
BJ [13] = assay: BJ-TERT-LT-ST fibroblast viability loss – cell-based, RAS-independent, luminescence, dose response (AID 1935); assay type: functional; conditions: Homo sapiens;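 also: BJ fibroblasts immortalized with TERT plus LT and ST oncogenes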
[14] = DRD fibroblast viability loss – cell-based, non-viral oncogenic, luminescence, dose response (AID 1934); assay type: functional; conditions: Homo sapiens
[15] = Luminescence Cell-Based Dose Retest to Confirm Inhibitors of Cancer Stem Cells. [Related pubchem assays (depositor defined):AID2717, AID2721]; assay type: functional; conditions: Homo sapiens
Escherichia coli = assay: microbe, parasite or virus in culture
Cytochrome P450 1A2 = target: T2, Cytochrome P450 1A2 (Homo sapiens, UniProt P05177);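 also: PubChem cytochrome P450 panel assay, CYP1A2 panel member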
T2 sequence (P05177 whole entry): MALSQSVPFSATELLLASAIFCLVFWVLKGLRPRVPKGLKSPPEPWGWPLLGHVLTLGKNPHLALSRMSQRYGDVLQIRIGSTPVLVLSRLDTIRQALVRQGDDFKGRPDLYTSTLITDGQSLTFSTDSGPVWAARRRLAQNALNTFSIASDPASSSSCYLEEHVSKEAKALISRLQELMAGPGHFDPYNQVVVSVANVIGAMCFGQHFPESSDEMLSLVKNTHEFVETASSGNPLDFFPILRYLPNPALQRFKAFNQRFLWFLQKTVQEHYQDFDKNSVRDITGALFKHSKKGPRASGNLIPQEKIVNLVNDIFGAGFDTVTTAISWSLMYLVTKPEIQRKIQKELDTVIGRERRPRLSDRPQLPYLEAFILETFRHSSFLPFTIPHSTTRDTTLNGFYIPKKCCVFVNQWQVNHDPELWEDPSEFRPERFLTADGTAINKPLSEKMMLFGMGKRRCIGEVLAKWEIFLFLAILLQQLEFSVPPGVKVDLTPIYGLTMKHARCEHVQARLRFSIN

Streptokinase A = target: T3, Streptokinase A (Streptococcus pyogenes serotype M1, UniProt P10520); assay: viability-normalized secreted streptokinase activity reduction – plasminogen activation absorbance, OD405, dose response (AID 1914); assay type: functional, Streptococcus pyogenes M1 GAS;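 also: secreted streptokinase activity via plasminogen activation per viability signal from cell pellet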
T3 sequence (P10520 whole entry): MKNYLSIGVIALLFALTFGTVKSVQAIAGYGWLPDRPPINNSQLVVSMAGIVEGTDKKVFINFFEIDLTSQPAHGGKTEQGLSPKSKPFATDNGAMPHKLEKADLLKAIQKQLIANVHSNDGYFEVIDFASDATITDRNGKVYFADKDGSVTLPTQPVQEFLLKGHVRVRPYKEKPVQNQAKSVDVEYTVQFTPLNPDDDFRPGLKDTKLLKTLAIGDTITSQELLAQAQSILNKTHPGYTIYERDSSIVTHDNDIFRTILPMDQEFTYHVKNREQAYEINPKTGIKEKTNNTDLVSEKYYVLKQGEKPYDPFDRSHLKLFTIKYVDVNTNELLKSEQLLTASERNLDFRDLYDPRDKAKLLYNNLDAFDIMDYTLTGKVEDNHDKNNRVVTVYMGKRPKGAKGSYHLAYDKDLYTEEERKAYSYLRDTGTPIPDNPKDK

Jurkat [16] = assay: blockers of NF-kB activation in T cells – Jurkat, luciferase reporter, luminescence, B- and T-cell, dose response (AID 489004); assay type: functional, cell-based; conditions: Homo sapiens;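 also: NF-kB luciferase reporter Jurkat cells stimulated with PMA plus ionomycin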
[17] = HEK-293T viability loss, compound-treated – cell-based, uHTS hits, cytotoxicity control for B/T-cell NF-kB inhibitor project, dose response (AID 489019); assay type: functional;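 also: IC50 reflects cytotoxicity as loss of cell viability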
[18] = target: Heat shock protein HSP 90-alpha (Homo sapiens, UniProt P07900); assay type: functional, organism-based
BJ [19] = assay: growth inhibition of engineered Ras-driven BJ cells – cell-based, alamar blue fluorescence, cherrypicked samples, dose response (AID 2631); assay type: functional; conditions: Homo sapiens;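 also: confirmatory dose-response assay in RAS-dependent BJ fibroblasts engineered with TERT, LT and ST, with cytotoxicity read by fluorescence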
INS1 = assay: INS-1E survival protection against cytokine death – cell-based, luminescence, retest, dose response (AID 449756); assay type: functional; conditions: Rattus norvegicus;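 also: cell death triggered by IL-1 beta plus TNF-alpha plus IFN-gamma mixture; protective hits raise ATP signal compared with cytokine alone wells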
Galanin receptor type 3 = Galanin receptor type 3 (Homo sapiens, UniProt O60755); assay: Fluorescence-based cell-based primary high throughput dose response assay to identify antagonists of the Galanin Receptor 3 (GalR3).; assay type: functional
Chain of Galanin receptor type 3 (O60755 whole entry): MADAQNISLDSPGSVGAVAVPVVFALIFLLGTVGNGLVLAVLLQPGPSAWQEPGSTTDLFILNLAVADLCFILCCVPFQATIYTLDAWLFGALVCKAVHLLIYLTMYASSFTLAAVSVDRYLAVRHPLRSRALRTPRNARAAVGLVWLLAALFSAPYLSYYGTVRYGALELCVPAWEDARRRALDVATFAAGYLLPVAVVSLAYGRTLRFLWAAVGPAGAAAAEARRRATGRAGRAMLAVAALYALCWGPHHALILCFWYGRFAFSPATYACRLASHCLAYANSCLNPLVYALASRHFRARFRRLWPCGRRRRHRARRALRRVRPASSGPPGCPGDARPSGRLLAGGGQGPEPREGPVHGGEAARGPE

cells [20] = assay type: functional, cell-based; conditions: HEK-CNG
[21] = target: T4, DNA repair protein RAD52 homolog (Homo sapiens, UniProt P43351); assay type: functional, biochemical
T4 sequence (P43351 whole entry): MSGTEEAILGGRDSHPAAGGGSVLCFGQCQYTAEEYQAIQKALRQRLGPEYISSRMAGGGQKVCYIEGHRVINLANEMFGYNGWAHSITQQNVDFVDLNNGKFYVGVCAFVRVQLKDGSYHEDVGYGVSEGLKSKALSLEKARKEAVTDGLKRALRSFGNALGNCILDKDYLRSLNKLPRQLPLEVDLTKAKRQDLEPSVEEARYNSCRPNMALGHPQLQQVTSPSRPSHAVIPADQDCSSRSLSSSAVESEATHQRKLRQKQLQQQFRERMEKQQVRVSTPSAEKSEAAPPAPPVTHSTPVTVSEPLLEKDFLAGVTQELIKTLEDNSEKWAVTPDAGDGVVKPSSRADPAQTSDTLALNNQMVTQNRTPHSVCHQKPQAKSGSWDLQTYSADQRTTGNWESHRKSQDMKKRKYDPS

Paired box protein Pax-8 = Paired box protein Pax-8 (Homo sapiens, UniProt Q06710); assay: PAX8 transcriptional activity inhibition in RMG-I – RMG-I cells, luciferase, cherry-pick, dose response (AID 687027); assay type: functional, cell-based;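 also: luciferase reporter driven by Pax8 target thyroperoxidase promoter measured by SteadyGlo luminescence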
Chain of Paired box protein Pax-8 (Q06710 whole entry): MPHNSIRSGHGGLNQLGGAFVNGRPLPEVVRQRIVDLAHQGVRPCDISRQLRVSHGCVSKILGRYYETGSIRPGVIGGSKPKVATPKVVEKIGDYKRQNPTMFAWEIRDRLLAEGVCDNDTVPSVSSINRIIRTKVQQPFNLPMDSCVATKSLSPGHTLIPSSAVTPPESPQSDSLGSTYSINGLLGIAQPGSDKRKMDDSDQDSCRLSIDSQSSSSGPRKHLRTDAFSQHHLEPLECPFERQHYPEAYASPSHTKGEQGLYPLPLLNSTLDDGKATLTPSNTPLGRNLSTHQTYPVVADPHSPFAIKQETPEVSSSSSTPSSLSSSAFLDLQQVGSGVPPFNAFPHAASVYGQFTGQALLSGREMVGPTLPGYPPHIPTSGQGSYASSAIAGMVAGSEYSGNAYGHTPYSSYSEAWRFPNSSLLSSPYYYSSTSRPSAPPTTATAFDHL

[22] = viability loss of HMLE_sh_eGFP cells – cell-based, luminescence, counter-screen for HMLE_sh_ECad selective toxicity project, dose response (AID 463074); assay type: functional, Homo sapiens;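 also: HMLE human mammary epithelial cells expressing control shRNA against eGFP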
[23] = target: T5, High affinity choline transporter 1 (Homo sapiens, UniProt Q9GZV3); assay: human choline transporter blockers, potency – cell-based, 5-point CRC, membrane potential dye, dose response (AID 504840); assay type: functional
T5 sequence (Q9GZV3 whole entry): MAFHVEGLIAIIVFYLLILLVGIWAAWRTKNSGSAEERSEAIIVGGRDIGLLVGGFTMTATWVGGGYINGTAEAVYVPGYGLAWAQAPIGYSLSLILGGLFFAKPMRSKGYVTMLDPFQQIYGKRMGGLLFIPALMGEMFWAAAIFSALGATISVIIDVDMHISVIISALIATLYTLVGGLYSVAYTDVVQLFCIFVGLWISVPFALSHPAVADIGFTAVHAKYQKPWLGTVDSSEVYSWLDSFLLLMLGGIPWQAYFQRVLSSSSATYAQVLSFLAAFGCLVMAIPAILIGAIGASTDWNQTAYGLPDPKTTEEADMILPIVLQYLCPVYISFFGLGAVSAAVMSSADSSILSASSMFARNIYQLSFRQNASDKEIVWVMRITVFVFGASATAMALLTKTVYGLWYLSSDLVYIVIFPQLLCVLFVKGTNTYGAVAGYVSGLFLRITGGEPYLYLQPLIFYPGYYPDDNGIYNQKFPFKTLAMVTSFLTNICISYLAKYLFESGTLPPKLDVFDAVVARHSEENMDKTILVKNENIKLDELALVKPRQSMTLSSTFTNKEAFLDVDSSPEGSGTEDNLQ

Jurkat [24] = assay: SAR Analysis of small molecule inhibitors of […] specific antigen receptor-induced NF-kB activation in a Jurkat cell line using a luminescence assay - Set 3. [Related pubchem assays (depositor defined):AID435022, AID435025, AID465]; assay type: functional, cell-based; conditions: Homo sapiens
HEK293 [25] = assay: SAR Analysis of small molecule inhibitors of B-cell specific antigen receptor-induced NF-kB activation in a HEK-293T cell line using a luminescence assay - Set 2. [Related pubchem assays (depositor defined):AID435022, AID435025, AID489021]; assay type: functional, cell-based; conditions: Homo sapiens
HEK293 [26] = assay: HEK293T cell viability loss, resazurin readout – resazurin fluorescence, cytotoxicity control for NF-kB activator project, SAR follow-up (AID 493251); assay type: functional, cell-based; conditions: Homo sapiens

Nc1c2c(nc3ccc(Br)cc13)N(C1CCCCC1)CC2
IC50 [1]: 3.06 µM (active) | IC50 [2]: 4.61 µM (active)

COc1cccc2sc(Nc3nnc(-c4ccc(F)cc4)o3)nc12
EC50 [3]: > 160 µM (inconclusive) | EC50 [4]: 0.29 µM (active) | EC50 [5]: 1.72 µM (active) | IC50 (Estrogen receptor): 25 µM (active) | EC50 (Streptococcus): 2.25 µM (active) | CC50 [6]: 14.5 µM (active) | CC50 [7]: > 20 µM (active) | CC50 [8]: 9.26 µM (active) | IC50 (cells [9]): 15.3 µM (active) | IC50 [10]: 7.3 µM (active)

COCCNC(=O)c1cnc2ccc(S(=O)(=O)N3CCc4ccccc43)cc2c1O
EC50 (BJ [11]): > 150 µM (not active) | EC50 (BJ [12]): 7.76 µM (active) | EC50 (BJ [13]): > 150 µM (not active) | EC50 [14]: 11.5 µM (active) | AC50 [15]: 2.32 µM (active) | AC50 (Escherichia coli): 87.7 µM (active)

N[C@H](C(=O)O)c1nnn[nH]1
AC50 (Cytochrome P450 1A2): inconclusive

CCCCCCCCCCCCn1ccc(=N)cc1
EC50 [4]: 3.09 µM (active) | EC50 (BJ [11]): 2.72 µM (active) | EC50 (Streptokinase A): 17.6 µM (active) | EC50 (BJ [12]): 2.85 µM (inconclusive) | EC50 (BJ [13]): 5.37 µM (inconclusive) | EC50 [14]: 8.01 µM (active) | EC50 (Streptococcus): 10.3 µM (active) | IC50 (Jurkat [16]): 0.92 µM (active) | IC50 [17]: 66.1 µM (inactive) | AC50 [18]: 10.8 µM (active) | EC50 (BJ [19]): 0.949 µM (active) | AC50 (INS1): 0.293 µM (active) | IC50 (Galanin receptor type 3): 1.28 µM (active) | EC50 (cells [20]): > 29.9 µM (inactive) | AC50 [21]: 14.8 µM (active) | AC50 (Paired box protein Pax-8): 3.74 µM (active)

COc1ccc(CN(C)c2ncnc3sccc23)c(OC)c1OC
AC50 [15]: 15.8 µM (active) | AC50 [22]: 27.4 µM (active) | IC50 [23]: 13.8 µM (active)

CC(C)(C)c1ccc(-c2noc(CCC(=O)Nc3ccccc3)n2)cc1
IC50 (Jurkat [24]): 0.473 µM (active) | IC50 (HEK293 [25]): 0.23 µM (active) | IC50 (HEK293 [26]): > 80 µM (inactive)
